Measured values published in publication PMC7758422, “Design, Synthesis, and Antitumor Activities Study of Stapled A4K14-Citropin 1.1 Peptides” (Frontiers in Chemistry, 2020).
Like-named read-outs stand apart in the source and are kept apart here. Bridge positions count the residues as written; N and C are the ends. Square brackets hold non-standard residues; d marks the D form. Peptide text beside a SMILES is read from it. R8 = C=CCCCCCC[C@@](C)(N)C(=O)O; S5 = C=CCCC[C@](C)(N)C(=O)O

Tests used:
[1] = on-resin all-hydrocarbon stapling by ring-closing metathesis of S5/S5 (i,i+4) or R8/S5 (i,i+7), Grubbs first-generation catalyst (0.45 mmol per 0.15 mmol resin, 3 equiv), then TFA/TIPS/phenol/H2O cleavage and RP-HPLC; conditions: the molecule shown is the open-chain precursor, 21-membered ring, 1,2-dichloroethane, 25.0 °C, 4.0 h, 36 steps
α-chymotrypsin = assay: Protease stability experiment (α-chymotrypsin-mediated degradation); type: in vitro ADME; conditions: for remaining at 12 h, 25 µM: read-out: peptide remaining intact after 12 h of protease exposure; for half-life at 25 µM: α-chymotrypsin 0.5 ng/μl in PBS pH 7.4 with 2 mM CaCl2, 50 μl peptide 1 mM in DMSO + 1,950 μl enzyme, 37°C, 0, 1, 2, 4, 8, 12 h, residual peptide by HPLC, read-out: t1/2 (h), hydrolysis enzyme degradation half-life (converted)
Experimental: Protease Stability Experiment
Fifty microliters peptides in dimethyl sulfoxide (DMSO) (1 mM) and 1,950 μl α-chymotrypsin in phosphate-buffered saline (PBS) (0.5 ng/μl, pH 7.4, containing 2 mM CaCl2) were mixed and incubated at 37°C. After 0, 1, 2, 4, 8, and 12 h, the percent residual peptide was monitored by HPLC.

glioma cell line U87 = type: cell-based
Text: (§1) Cell Culture and Cell Viability Assay
(§2) The human prostate cancer cell line C4-2B was kindly provided and authenticated by Dr. Leland Chung (Cedars-Sinai Medical Center, Los Angeles, CA, USA). The human lung tumor cell line A549, the human breast tumor cell line MCF-7, and glioma cell line U87 were obtained from Shanghai Cellular Institute of Chinese Academy of Sciences (Shanghai, China). All cell lines were maintained in Dulbecco's modified Eagle's medium (DMEM) involving 10% fetal bovine serum (FBS) and 1% penicillin–streptomycin (PS) (complete DMEM) and was cultured at 37°C with humidified atmosphere of 5% CO2. Cell viability was examined using the cell counting kit (CCK-8) in accordance with manufacturer's protocol. Cells were seeded in 96-well culture plates at a density of 3 ×10^3 cells/well at 37°C for 24 h. Next day, cells were treated without or with various concentrations (0.39, 0.78, 1.56, 3.125, 6.25, 12.5, 25, and 50 μM) of peptides for 96 h after which 10 μl of CCK-8 reagent was added to each well and incubated for further 2 h at 37°C. The optical density (OD) was then measured at a wavelength of 450 nm on a Cell Imaging Multi-Mode Reader (BioTek, Vermont, USA), and the average OD values for each sample were analyzed using Image-J software (NIH, Bethesda, MD, USA). The half maximal inhibitory concentration (IC50) was calculated by GraphPad Prism v7.0 software (San Diego, CA, USA).

[2] = tested on: human breast tumor cell line MCF-7; type: cell-based
Text: as §1, §2

[3] = tested on: human lung tumor cell line A549; type: cell-based
Text: as §1, §2

[4] = tested on: human prostate cancer cell line C4-2B; type: cell-based
Text: as §1, §2

[5] = α-chymotrypsin 0.5 ng/μl in PBS pH 7.4 with 2 mM CaCl2, 37°C, 12 h, HPLC
[6] = CCK-8, 96 h treatment, 0.39-50 μM, OD 450 nm, read-out: IC50 (μM) U87
[7] = CCK-8, 96 h treatment, 0.39-50 μM, OD 450 nm, read-out: IC50 (μM) MCF-7
[8] = CCK-8, 96 h treatment, 0.39-50 μM, OD 450 nm, read-out: IC50 (μM) A549
[9] = CCK-8, 96 h treatment, 0.39-50 μM, OD 450 nm, read-out: IC50 (μM) C4-2B

Compound	ring closure, overall yield [1] [% yield]	half-life at 25 µM (α-chymotrypsin) [h]	IC50 (glioma cell line U87; [6]) [µM]	IC50 [2, 7] [µM]	IC50 [3, 8] [µM]	IC50 [4, 9] [µM]	other results
C=CCCC[C@](C)(NC(=O)CNC(C)=O)C(=O)N[C@@H](Cc1ccccc1)C(=O)N[C@@H](C)C(=O)N[C@H](C(=O)N[C@@](C)(CCCC=C)C(=O)N[C@@H](CCCCNC(=O)OC(C)(C)C)C(=O)N[C@@H](CCCCNC(=O)OC(C)(C)C)C(=O)N[C@H](C(=O)N[C@@H](C)C(=O)N[C@@H](COC(C)(C)C)C(=O)N[C@H](C(=O)N[C@H](C(=O)N[C@@H](CCCCNC(=O)OC(C)(C)C)C(=O)NCC(=O)N[C@@H](CC(C)C)C(N)=O)[C@@H](C)CC)C(C)C)C(C)C)C(C)C	63	–	–	–	–	–	–
C=CCCC[C@](C)(NC(=O)[C@@H](NC(=O)[C@H](C)NC(=O)[C@H](Cc1ccccc1)NC(=O)[C@H](CC(C)C)NC(=O)CNC(C)=O)C(C)C)C(=O)N[C@@H](CCCCNC(=O)OC(C)(C)C)C(=O)N[C@@H](CCCCNC(=O)OC(C)(C)C)C(=O)N[C@H](C(=O)N[C@@](C)(CCCC=C)C(=O)N[C@@H](COC(C)(C)C)C(=O)N[C@H](C(=O)N[C@H](C(=O)N[C@@H](CCCCNC(=O)OC(C)(C)C)C(=O)NCC(=O)N[C@@H](CC(C)C)C(N)=O)[C@@H](C)CC)C(C)C)C(C)C	71	–	–	–	–	–	–
C=CCCC[C@](C)(NC(=O)[C@H](C)NC(=O)[C@@H](NC(=O)[C@H](CCCCNC(=O)OC(C)(C)C)NC(=O)[C@H](CCCCNC(=O)OC(C)(C)C)NC(=O)[C@@H](NC(=O)[C@@H](NC(=O)[C@H](C)NC(=O)[C@H](Cc1ccccc1)NC(=O)[C@H](CC(C)C)NC(=O)CNC(C)=O)C(C)C)[C@@H](C)CC)C(C)C)C(=O)N[C@H](C(=O)N[C@H](C(=O)N[C@@H](CCCCNC(=O)OC(C)(C)C)C(=O)N[C@@](C)(CCCC=C)C(=O)N[C@@H](CC(C)C)C(N)=O)[C@@H](C)CC)C(C)C	62	–	–	–	–	–	–
C=CCCC[C@](C)(NC(=O)[C@H](C)NC(=O)[C@H](Cc1ccccc1)NC(=O)[C@H](CC(C)C)NC(=O)CNC(C)=O)C(=O)N[C@H](C(=O)N[C@@H](CCCCNC(=O)OC(C)(C)C)C(=O)N[C@@H](CCCCNC(=O)OC(C)(C)C)C(=O)N[C@@](C)(CCCC=C)C(=O)N[C@@H](C)C(=O)N[C@@H](COC(C)(C)C)C(=O)N[C@H](C(=O)N[C@H](C(=O)N[C@@H](CCCCNC(=O)OC(C)(C)C)C(=O)NCC(=O)N[C@@H](CC(C)C)C(N)=O)[C@@H](C)CC)C(C)C)[C@@H](C)CC	62	–	–	–	–	–	–
C=CCCC[C@](C)(NC(=O)[C@H](CCCCNC(=O)OC(C)(C)C)NC(=O)[C@H](CCCCNC(=O)OC(C)(C)C)NC(=O)[C@@H](NC(=O)[C@@H](NC(=O)[C@H](C)NC(=O)[C@H](Cc1ccccc1)NC(=O)[C@H](CC(C)C)NC(=O)CNC(C)=O)C(C)C)[C@@H](C)CC)C(=O)N[C@@H](C)C(=O)N[C@@H](COC(C)(C)C)C(=O)N[C@H](C(=O)N[C@@](C)(CCCC=C)C(=O)N[C@@H](CCCCNC(=O)OC(C)(C)C)C(=O)NCC(=O)N[C@@H](CC(C)C)C(N)=O)C(C)C	66	–	–	–	–	–	–
CC[C@H](C)[C@H](NC(=O)[C@@H](NC(=O)[C@H](CO)NC(=O)[C@H](C)NC(=O)[C@@H](NC(=O)[C@H](CCCCN)NC(=O)[C@H](CCCCN)NC(=O)[C@]1(C)CCCC=CCCC[C@](C)(NC(=O)CNC(C)=O)C(=O)N[C@@H](Cc2ccccc2)C(=O)N[C@@H](C)C(=O)N[C@@H](C(C)C)C(=O)N1)C(C)C)C(C)C)C(=O)N[C@@H](CCCCN)C(=O)NCC(=O)N[C@@H](CC(C)C)C(N)=O [A4K14-citropin1.1-1] (Ac-G[S5]FAV[S5]KKVASVIKGL-NH2; staple 2-6)	–	> 10	11.9	11.3	12.5	8.94	remaining at 12 h, 25 µM (α-chymotrypsin; [5]): > 85%
CC[C@H](C)[C@H](NC(=O)[C@@H](NC(=O)[C@H](CO)NC(=O)[C@H](C)NC(=O)[C@]1(C)CCCC=CCCC[C@](C)(NC(=O)[C@H](C)NC(=O)[C@H](Cc2ccccc2)NC(=O)[C@H](CC(C)C)NC(=O)CNC(C)=O)C(=O)N[C@@H]([C@@H](C)CC)C(=O)N[C@@H](CCCCN)C(=O)N[C@@H](CCCCN)C(=O)N1)C(C)C)C(=O)N[C@@H](CCCCN)C(=O)NCC(=O)N[C@@H](CC(C)C)C(N)=O [A4K14-citropin1.1-2] (Ac-GLFA[S5]IKK[S5]ASVIKGL-NH2; staple 5-9)	–	1.72	–	–	–	–	IC50 (glioma cell line U87; 96 h): 14.8 µM; IC50 ([2]; 96 h): 12.7 µM; IC50 ([3]; 96 h): 12.6 µM; IC50 ([4]; 96 h): 10.1 µM
CC[C@H](C)[C@H](NC(=O)[C@@H](NC(=O)[C@H](CO)NC(=O)[C@]1(C)CCCC=CCCC[C@](C)(NC(=O)[C@@H](NC(=O)[C@H](C)NC(=O)[C@H](Cc2ccccc2)NC(=O)[C@H](CC(C)C)NC(=O)CNC(C)=O)C(C)C)C(=O)N[C@@H](CCCCN)C(=O)N[C@@H](CCCCN)C(=O)N[C@@H](C(C)C)C(=O)N1)C(C)C)C(=O)N[C@@H](CCCCN)C(=O)NCC(=O)N[C@@H](CC(C)C)C(N)=O [A4K14-citropin1.1-3] (Ac-GLFAV[S5]KKV[S5]SVIKGL-NH2; staple 6-10)	–	0.61	11.9	11.9	12.1	17.9	–
CC[C@H](C)[C@H](NC(=O)[C@@H](NC(=O)[C@H](C)NC(=O)[C@H](Cc1ccccc1)NC(=O)[C@H](CC(C)C)NC(=O)CNC(C)=O)C(C)C)C(=O)N[C@@H](CCCCN)C(=O)N[C@@H](CCCCN)C(=O)N[C@@]1(C)CCCC=CCCC[C@@](C)(C(=O)N[C@@H](CCCCN)C(=O)NCC(=O)N[C@@H](CC(C)C)C(N)=O)NC(=O)[C@H](C(C)C)NC(=O)[C@H](CO)NC(=O)[C@H](C)NC1=O [A4K14-citropin1.1-4] (Ac-GLFAVIKK[S5]ASV[S5]KGL-NH2; staple 9-13)	–	> 10	7.28	10.5	10.5	8.9	remaining at 12 h, 25 µM (α-chymotrypsin; [5]): > 85%
CC[C@H](C)[C@H](NC(=O)[C@@H](NC(=O)[C@H](C)NC(=O)[C@H](Cc1ccccc1)NC(=O)[C@H](CC(C)C)NC(=O)CNC(C)=O)C(C)C)C(=O)N[C@@H](CCCCN)C(=O)N[C@@H](CCCCN)C(=O)N[C@H](C(=O)N[C@@H](C)C(=O)N[C@@]1(C)CCCC=CCCC[C@@](C)(C(=O)N[C@@H](CC(C)C)C(N)=O)NC(=O)[C@H](CCCCN)NC(=O)[C@H]([C@@H](C)CC)NC(=O)[C@H](C(C)C)NC1=O)C(C)C [A4K14-citropin1.1-5] (Ac-GLFAVIKKVA[S5]VIK[S5]L-NH2; staple 11-15)	–	1.83	8.23	12.4	9.9	11.9	–
CC[C@H](C)[C@@H]1NC(=O)[C@H](C(C)C)NC(=O)[C@H](C)NC(=O)[C@H](Cc2ccccc2)NC(=O)[C@](C)(NC(=O)CNC(C)=O)CCCCCCC=CCCC[C@@](C)(C(=O)N[C@@H](C)C(=O)N[C@@H](CO)C(=O)N[C@H](C(=O)N[C@H](C(=O)N[C@@H](CCCCN)C(=O)NCC(=O)N[C@@H](CC(C)C)C(N)=O)[C@@H](C)CC)C(C)C)NC(=O)[C@H](CCCCN)NC(=O)[C@H](CCCCN)NC1=O [A4K14-citropin1.1-6] (Ac-G[R8]FAVIKK[S5]ASVIKGL-NH2; staple 2-9)	–	0.57	34.5	23.8	30.2	35.8	–
CC(=O)NCC(=O)N[C@@H](CC(C)C)C(=O)N[C@@H](Cc1ccccc1)C(=O)N[C@@H](C)C(=O)N[C@H](C(=O)N[C@]1(C)CCCCCCC=CCCC[C@@](C)(C(=O)N[C@@H](CCCCN)C(=O)NCC(=O)N[C@@H](CC(C)C)C(N)=O)NC(=O)[C@H](C(C)C)NC(=O)[C@H](CO)NC(=O)[C@H](C)NC(=O)[C@H](C(C)C)NC(=O)[C@H](CCCCN)NC(=O)[C@H](CCCCN)NC1=O)C(C)C [A4K14-citropin1.1-7] (Ac-GLFAV[R8]KKVASV[S5]KGL-NH2; staple 6-13)	–	0.58	14.7	12.1	16.4	10.2	–
Ac-GLFAVIKKVASVIKGL-NH2 [A4K14-citropin1.1, reference compound]	–	0.63	14.8	14.2	15	29.1	peptide remaining intact after 12 h of protease exposure (α-chymotrypsin; [5]): degraded completely
